Where “and” joins values, the source holds several entries; their conditions need not be identical. Identical values can stand only once. Like-named read-outs stand apart in the source and are kept apart here.
Legend:
[1] = for Average Cell Number (1 uM) / Cell Number (1 uM) / Normalized Cell Number (1 uM): compound at 1 uM; for Average Cell Number (1 uM) / Average Cell Number (5 uM): average of normalized cell number, n=3, relative to DMSO; for Cell Number (1 uM) / Normalized Cell Number (1 uM) / Cell Number (5 uM) / Normalized Cell Number (5 uM): single replicate; for Cell Number (1 uM) / Cell Number (5 uM): raw cell count; for Normalized Cell Number (1 uM) / Normalized Cell Number (5 uM): relative to negative control DMSO; for Average Cell Number (5 uM) / Cell Number (5 uM) / Normalized Cell Number (5 uM): compound at 5 uM
SARS-CoV-2 = assay: microbe, parasite or virus in culture; type: cell-based; conditions: for HIT: overall, 1 or 5 uM; for activity at 1 µM: Severe acute respiratory syndrome coronavirus 2, 1 uM, read-out: Normalized Infection (1 uM); for activity at 5 µM: Severe acute respiratory syndrome coronavirus 2, 5 uM, read-out: Normalized Infection (5 uM)
[2] = 1 uM, single replicate, relative to negative control DMSO
[3] = 5 uM, single replicate, relative to negative control DMSO
[4] = 1 uM, average log2FC infection (n=3) relative to DMSO
[5] = 5 uM, average log2FC infection (n=3) relative to DMSO
[6] = single replicate, relative to negative control DMSO

Row | SMILES | Toxic (1 uM) [1] | Toxic (5 uM) [1] | Average Cell Number (1 uM) [1] | Cell Number (1 uM) [1] | Normalized Cell Number (1 uM) [1] | Average Cell Number (5 uM) [1] | Cell Number (5 uM) [1] | Normalized Cell Number (5 uM) [1] | Average Infection (1 uM) (SARS-CoV-2) | Average Infection (5 uM) (SARS-CoV-2) | HIT (2 Std, 1 uM) (SARS-CoV-2; 1 uM) | HIT (2 Stdv, 5 uM) (SARS-CoV-2; 5 uM) | HIT (SARS-CoV-2) | Average Infection (1 uM) (SARS-CoV-2; [4]) | Average Infection (5 uM) (SARS-CoV-2; [5]) | activity at 1 µM (SARS-CoV-2; [6]) [%] | activity at 5 µM (SARS-CoV-2; [6]) [%] | also measured
1 | CC(C)N1CCN(Cc2cnc(-c3cc(-c4cccc5[nH]ccc45)cc4[nH]ncc34)o2)CC1 [GSK2269557, nemiralisib] | 0 (non-toxic (Normalized Cell number>0.65) | 0 (non-toxic (Normalized Cell number>0.65) | 0.8919 | 4831 and 5665 and 5184 | 0.8244 and 0.9667 and 0.8846 | 0.7914 | 4568 and 3831 and 5671 | 0.7708 and 0.6465 and 0.9569 | −0.7144 | −3.347 | HIT | HIT | Yes | – | – | – | – | % Infection (1 uM) (SARS-CoV-2; 1 uM, single replicate of triplicate): 17.26% and 15.32% and 15.51%; Normalized Infection (1 uM) (SARS-CoV-2; [2]): 0.6572 and 0.5833 and 0.5904; log2FC Infection (1 uM) (SARS-CoV-2; [2]): −0.6055 and −0.7776 and −0.7601; % Infection (5 uM) (SARS-CoV-2; 5 uM, single replicate of triplicate): 1.292% and 0.4698% and 5.713%; Normalized Infection (5 uM) (SARS-CoV-2; [3]): 0.08388 and 0.03051 and 0.371; log2FC Infection (5 uM) (SARS-CoV-2; [3]): −3.575 and −5.034 and −1.43
2 | CCCCN(CCCC)CCC(O)c1cc2c(Cl)cc(Cl)cc2c2cc(C(F)(F)F)ccc12 (stereo not shown) [Halofantrine lot −4, halofantrine] | 0 (non-toxic (Normalized Cell number>0.65) | 0 (non-toxic (Normalized Cell number>0.65) | 0.8035 | 4727 and 4541 and 4857 | 0.8067 and 0.7749 and 0.8288 | 0.6652 | – | – | – | – | HIT | HIT | Yes | −1.202 | −1.864 | 48.6 | 23.4 | –
3 | CCCCN(CCCC)CCC(O)c1cc2c(Cl)cc(Cl)cc2c2cc(C(F)(F)F)ccc12 (stereo not shown) [Halofantrine lot −5, halofantrine] | 0 (non-toxic (Normalized Cell number>0.65) | 0 (non-toxic (Normalized Cell number>0.65) | 0.6582 | 3755 and 3889 and 3927 | 0.6408 and 0.6637 and 0.6701 | 0.8653 | 5286 and 5054 and 5044 | 0.892 and 0.8528 and 0.8511 | – | – | HIT | HIT | Yes | −1.062 | −1.947 | – | – | –
4 | CC(C)(C)c1cc(C(C)(C)C)c(NC(=O)c2c[nH]c3ccccc3c2=O)cc1O [Ivacaftor, ivacaftor] | – | 0 (non-toxic (Normalized Cell number>0.65) | 0.6354 | 3730 and 3662 and 3779 | 0.6365 and 0.6249 and 0.6449 | 0.735 | 4520 and 4563 and 3984 | 0.7627 and 0.77 and 0.6723 | −0.9235 | −0.9409 | HIT | HIT | Yes | – | – | 59.8 | 60.9 | –
5 | CC1(N)CCN(c2cccnc2NC(=O)c2nc(-c3ncccc3C(F)(F)F)cnc2N)CC1 [LXS-196, lxs196] | 0 (non-toxic (Normalized Cell number>0.65) | – | 0.9125 | 5737 and 5507 and 4798 | 0.979 and 0.9398 and 0.8188 | 0.5379 | – | – | – | – | HIT | HIT | Yes | −2.123 | −6.497 | 31 | – | –
